# Experimental data taken from patent publication US20110077702A1, “Means and Methods for Influencing Electrical Activity of Cells” (Academisch Medisch Centrum Bij de Universiteit van Amsterdam, priority 2008, published 2011).
# Like-named read-outs stand apart in the source and are kept apart here.
# How the values were obtained:
# LBB preparations = assay: Tissue bath studies of LBB preparations of injected animals; parameters: species or system dog
# [1] = system: neonatal rat cardiac myocytes; assay: Spontaneous activity of single control NRCMs with PDE4 inhibition; assay type: cell-based; settings: 100 nM rolipram
# Method: (§1) Neonatal rat cardiac myocytes and CMPCs were transduced with LV-HCN4-GFP, TBX3-GFP and LV-GFP at a MOI of 0.1, HEK 293 cells were transfected with both HCN4 and GFP or EVY deleted HCN4 and GFP. Single electrophysiological cell experiments were performed 7-10 days and 2 months after transducing NRCMs and CMPCs, respectively, or after the HEK 293 transfection. Myocytes were trypsinized during 30 seconds to prepare them for patch-clamping. By this procedure, cardiac myocytes lost their cell-to-cell connections, became less flattened (which facilitated the use of glass micropipettes), but remained attached to the coverslip.
# Action potentials, If and membrane currents were recorded at 36±0.2° using the perforated patch-clamp technique (Axopatch 200B Clamp amplifier, Axon Instruments Inc.). Signals were low-pass filtered (cut-off frequency: 5-kHz) and digitized at 5-kHz. Series resistance was compensated by ≧80%, and potentials were corrected for the estimated 15-mV change in liquid-junction potential. For voltage control, data acquisition, and analysis, custom-made software was used. Superfusion solution contained (mM): 140 NaCl, 5.4 KCl, 1.8 CaCl2, 1.0 MgCl2, 5.5 glucose, 5 HEPES; pH 7.4 (NaOH). Pipettes (2-3 MΩ, borosilicate glass) were filled with solution containing (mM): 125 K-gluc, 20 KCl, 5 NaCl, 0.22 amphotericin-B, 10 HEPES; pH 7.2 (KOH).
# [2] = system: neonatal rat cardiac myocytes overexpressing HCN4; assay: If activation curve, perforated patch-clamp, in HCN4 overexpressing NRCMs with PDE4 inhibition; assay type: cell-based; settings: 100 nM rolipram
# Method: as §1
# Action potentials, If and membrane currents were recorded at 36±0.2° using the perforated patch-clamp technique (Axopatch 200B Clamp amplifier, Axon Instruments Inc.). Signals were low-pass filtered (cut-off frequency: 5-kHz) and digitized at 5-kHz. Series resistance was compensated by ≧80%, and potentials were corrected for the estimated 15-mV change in liquid-junction potential. […]
# If was characterized using custom voltage-clamp protocols modified from those published previously.^14,27 For current-voltage (I-V) relationships and activation properties, If was measured as Cs^+ sensitive (5 mM) current during 6-s hyperpolarizing steps (range −30 to −110 mV) from a holding potential of −30 mV. […]
structure (smiles),measurement,setting,value
"CC(C)NCC(O)c1ccc(O)c(O)c1 (stereo not shown) [isoproterenol, Isoproterenol]",spontaneous rate of HCN2/SkM1 preparation,LBB preparations,robust spontaneous activity sensitive to isoproterenol
COc1ccc(C2CNC(=O)C2)cc1OC1CCCC1 (stereo not shown) [rolipram],spontaneous activity,[1],remarkable increase in spontaneous activity
same,shift in the If activation curve,[2],rightward shift in the If activation curve
COc1cc2c(cc1OC)CC(=O)N(CCCN(C)C[C@H]1Cc3cc(OC)c(OC)cc31)CC2 [Ivabradine],spontaneous rate of HCN2/SkM1 preparation,"LBB preparations; isoproterenol enhanced rhythm, HCN2/SkM1 injected animals",reductions in rate
